The values below come from patent US20250213575A1, “8-HETEROCYCLIC-3-(PHENYLSULFONYL)-[1,2,3]TRIAZOLO[1,5A]QUINAZOLIN-5(4H)-ONE DERIVATIVES AS ANTI-BACTERIALS” (priority 2022, published 2025).

Marks after values point to notes of the source that are not given here.

The assay deals with AgrA (Staphylococcus aureus, UniProt P0A0I7). As to the kind of experiment: cell-based. The settings on record: for Ratio IC50 (in presence of HSA)/IC50 (in absence of HSA): 40 mg/mL HSA vs without HSA; for Ratio (cells marked *): calculated based on activity in presence of 50% of human serum. Set-up: species or system S. aureus USA300 strain UAMS-1625.
Chain of AgrA (P0A0I7 whole entry): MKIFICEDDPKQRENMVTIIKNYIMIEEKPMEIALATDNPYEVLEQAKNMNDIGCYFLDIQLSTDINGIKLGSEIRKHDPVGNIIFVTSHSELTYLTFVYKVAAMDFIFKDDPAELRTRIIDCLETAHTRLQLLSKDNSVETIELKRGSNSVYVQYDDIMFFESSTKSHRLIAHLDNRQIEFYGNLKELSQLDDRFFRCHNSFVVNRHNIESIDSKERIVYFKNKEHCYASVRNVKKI
Where [1] appears, read: LB medium supplemented with 40 mg/mL human serum albumin.
[2] abbreviates: IC50 at 40 mg/mL HSA, LB medium supplemented with 40 mg/mL human serum albumin.
Where [3] appears, read: IC50 without HSA, LB medium, without HSA.
The mark [4] stands for this setting: concentration inhibiting the expression of lacZ, in the absence of HSA or HS.
Setting [5] is: IC50 at 40 mg/mL HSA (cells marked *), marked *: activity in presence of 50% of human serum, not determined in 40 mg/mL HSA.

In general, IC50 refers to the midpoint of a concentration-inhibition curve.

As for “3-(2,4-dimethylbenzenesulfonyl)-8-(4-methanesulfonylpiperazin-1-yl)-4H,5H-[1,2,3]triazolo[1,5-a]quinazolin-5-one [Compound 61]”, the “Ratio IC50 (in presence of HSA)/IC50 (in absence of HSA)” value (“Ratio IC50 (in presence of HSA)/IC50” below) is “++ (ratio ≤ 125)”. In addition, the “IC50 at 40 mg/mL HSA” value under setting [1] is “++ (10 μg/mL < IC50 ≤ 50 μg/mL)”. The “IC50 without HSA” value (LB medium, without HSA) is “+++ (IC50 ≤ 1 μg/mL)”.
Take “3-(2,4-dimethylbenzenesulfonyl)-8-(piperazin-1-yl)-4H,5H-[1,2,3]triazolo[1,5-a]quinazolin-5-one [Compound 23]”: the “Ratio IC50 (in presence of HSA)/IC50” value is on record as “+++ (ratio ≤ 25)”. Also, the “IC50 at 40 mg/mL HSA” value under setting [1] was “++ (10 μg/mL < IC50 ≤ 50 μg/mL)”. Moreover, the “IC50 without HSA” value (LB medium, without HSA) was “+++ (IC50 ≤ 1 μg/mL)”.
In the same order, the values of “3-(2,4-dimethylbenzenesulfonyl)-8-{9-methyl-2,9-diazaspiro[5.5]undecan-2-yl}-1H,5H-[1,2,3]triazolo[1,5-a]quinazolin-5-one [Compound 5]” are “+++ (ratio ≤ 25)”, “++ (10 μg/mL < IC50 ≤ 50 μg/mL)” and “+++ (IC50 ≤ 1 μg/mL)”.
In the same order, the values of “4-[3-(2,4-dimethylbenzenesulfonyl)-5-oxo-4H,5H-[1,2,3]triazolo[1,5-a]quinazolin-8-yl]piperazine-1-sulfonamide [Compound 62]” are “++ (ratio ≤ 125)”, “++ (10 μg/mL < IC50 ≤ 50 μg/mL)” and “+++ (IC50 ≤ 1 μg/mL)”.
With `Cc1ccc(S(=O)(=O)c2nnn3c2[nH]c(=O)c2ccc(N4C[C@H](C)NC[C@H]4C)cc23)c(C)c1` (racemic) [Compound 28, rac-3-(2,4-dimethylbenzenesulfonyl)-8-[(2R,5S)-2,5-dimethylpiperazin-1-yl]-4H,5H-[1,2,3]triazolo[1,5-a]quinazolin-5-one], the “Ratio IC50 (in presence of HSA)/IC50” value is “+++ (ratio ≤ 25)”. This compound also yielded an IC50 under setting [2] below 21.4 µM. Besides, the IC50 under setting [3] is below 2.14 µM.
Take `Cc1ccc(S(=O)(=O)c2nnn3c2[nH]c(=O)c2ccc(N4CCC4)cc23)c(C)c1` [45 (WO 2020/109350), reference compound]: the “Ratio IC50 (in presence of HSA)/IC50” value is given as “+ (ratio > 125)”. In addition, under setting [2], the IC50 was above 122 µM. The compound also yielded an IC50 under setting [3] below 2.44 µM. The compound also had an IC50 under setting [4] below 2.44 µM. In addition, the “activity in the presence of HSA (or HS), inactive at highest concentration tested” value (in the presence of HSA (or HS)) was above 128 µg/mL.
Consider `Cc1ccc(S(=O)(=O)c2nnn3c2[nH]c(=O)c2cc(O)ccc23)c(C)c1` [46 (WO 2020/109350), reference compound], for which the “Ratio (cells marked *)” value was “+* (ratio > 125)”. For the same compound, the IC50 under setting [5] was above 135 µM. This compound also yielded an IC50 under setting [3] below 2.7 µM. Moreover, the IC50 under setting [4] was below 2.7 µM.
For the compound `COCCOc1cc2c(cc1O)c(=O)[nH]c1c(S(=O)(=O)c3ccc(C)cc3C)nnn12` [58 (WO 2020/109350), reference compound], the “Ratio (cells marked *)” value was “+* (ratio > 125)”. Besides, under setting [5], the IC50 is above 112 µM. Under setting [3], this compound showed an IC50 below 2.25 µM. Besides, the IC50 under setting [4] is below 2.25 µM.
Take `Cc1ccc(S(=O)(=O)c2nnn3c2[nH]c(=O)c2cc(O)c(N4CCN(C)CC4)cc23)c(C)c1` [Compound 1, 3-(2,4-dimethylbenzenesulfonyl)-7-hydroxy-8-(4-methylpiperazin-1-yl)-4H,5H-[1,2,3]triazolo[1,5-a]quinazolin-5-one]: the “Ratio IC50 (in presence of HSA)/IC50” value is listed as “+++ (ratio ≤ 25)”. The concentration for half-maximal inhibition (IC50) under setting [2] is below 21.3 µM. Also, the IC50 under setting [3] was below 2.13 µM.
For `Cc1ccc(S(=O)(=O)c2nnn3c2[nH]c(=O)c2cc(O)c(N4CC5(CN(C)C5)C4)cc23)c(C)c1` [Compound 2, 3-(2,4-dimethylbenzenesulfonyl)-7-hydroxy-8-{6-methyl-2,6-diazaspiro[3.3]heptan-2-yl}-4H,5H-[1,2,3]triazolo[1,5-a]quinazolin-5-one], in that order: “+++ (ratio ≤ 25)”, below 20.8 µM and below 2.08 µM.
For `Cc1ccc(S(=O)(=O)c2n[nH]n3c2nc(=O)c2ccc(N4CCC5(CCN(C)CC5)C4)cc23)c(C)c1` [Compound 3, 3-(2,4-dimethylbenzenesulfonyl)-8-{8-methyl-2,8-diazaspiro[4.5]decan-2-yl}-1H,5H-[1,2,3]triazolo[1,5-a]quinazolin-5-one], in that order: “+++ (ratio ≤ 25)”, below 19.7 µM and below 1.97 µM.
As to `Cc1ccc(S(=O)(=O)c2n[nH]n3c2nc(=O)c2ccc(N4CCC5(CCCN(C)C5)CC4)cc23)c(C)c1` [Compound 4, 3-(2,4-dimethylbenzenesulfonyl)-8-{2-methyl-2,9-diazaspiro[5.5]undecan-9-yl}-1H,5H-[1,2,3]triazolo[1,5-a]quinazolin-5-one], the “Ratio IC50 (in presence of HSA)/IC50” value was “+++ (ratio ≤ 25)”. The IC50 under setting [2] lay within 19.2 to 96 µM. The same compound displayed an IC50 under setting [3] of 1.92 to 9.6 µM.
In the same order, the values of `Cc1ccc(S(=O)(=O)c2n[nH]n3c2nc(=O)c2ccc(N4CCC5(CCN(C)CC5)CC4)cc23)c(C)c1` [Compound 6, 3-(2,4-dimethylbenzenesulfonyl)-8-{9-methyl-3,9-diazaspiro[5.5]undecan-3-yl}-1H,5H-[1,2,3]triazolo[1,5-a]quinazolin-5-one] are “+++ (ratio ≤ 25)”, 19.2 to 96 µM and 1.92 to 9.6 µM.
On to `Cc1ccc(S(=O)(=O)c2nnn3c2[nH]c(=O)c2ccc(N4CCC5(CNCCO5)C4)cc23)c(C)c1` (stereo not shown) [Compound 7, 3-(2,4-dimethylbenzenesulfonyl)-8-{6-oxa-2,9-diazaspiro[4.5]decan-2-yl}-4H,5H-[1,2,3]triazolo[1,5-a]quinazolin-5-one], for which the “Ratio IC50 (in presence of HSA)/IC50” value is listed as “+++ (ratio ≤ 25)”. Under setting [2], this compound displayed an IC50 below 20.2 µM. The compound further had an IC50 under setting [3] below 2.02 µM.
Take `Cc1ccc(S(=O)(=O)c2nnn3c2[nH]c(=O)c2ccc(N4CCC5(CN(C)CCO5)C4)cc23)c(C)c1` (stereo not shown) [Compound 8, 3-(2,4-dimethylbenzenesulfonyl)-8-{9-methyl-6-oxa-2,9-diazaspiro[4.5]decan-2-yl}-4H,5H-[1,2,3]triazolo[1,5-a]quinazolin-5-one]: the “Ratio IC50 (in presence of HSA)/IC50” value is listed as “+++ (ratio ≤ 25)”. The compound further yielded an IC50 under setting [2] of 19.7 to 98.3 µM. Under setting [3], this compound registered an IC50 below 1.97 µM.
For the compound `Cc1ccc(S(=O)(=O)c2nnn3c2[nH]c(=O)c2ccc(N4CCOC5(CNC5)C4)cc23)c(C)c1` [Compound 9, 3-(2,4-dimethylbenzenesulfonyl)-8-{5-oxa-2,8-diazaspiro[3.5]nonan-8-yl}-4H,5H-[1,2,3]triazolo[1,5-a]quinazolin-5-one], the “Ratio IC50 (in presence of HSA)/IC50” value was “+++ (ratio ≤ 25)”. Under setting [2], this compound came in with an IC50 of 20.8 to 104 µM. This compound also registered an IC50 under setting [3] of 2.08 to 10.4 µM.
For `Cc1ccc(S(=O)(=O)c2nnn3c2[nH]c(=O)c2ccc(N4CCOC5(CN(C)C5)C4)cc23)c(C)c1` [Compound 10, 3-(2,4-dimethylbenzenesulfonyl)-8-{2-methyl-5-oxa-2,8-diazaspiro[3.5]nonan-8-yl}-4H,5H-[1,2,3]triazolo[1,5-a]quinazolin-5-one], in that order: “+++ (ratio ≤ 25)”, 20.2 to 101 µM and 2.02 to 10.1 µM.
